Legend:
Assay in all cases: Test D controlled growth environment herbicide test, pre- and postemergence
Format in all cases: in vivo
[1] = tested on: canarygrass (Phalaris minor)
Summary of the method: (§1)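 Rating is visual, 0–100 scale (100 = complete control), made against untreated plants 14–21 d after treatment in controlled growth conditions. Postemergence sprays went onto 1- to 4-leaf plants in peat medium; preemergence sprays onto silt loam after sowing; formulation included a surfactant.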

[2] = tested on: blackgrass (Alopecurus myosuroides)
Summary of the method: as §1

[3] = tested on: windgrass (Apera spica-venti)
Summary of the method: as §1

[4] = tested on: galium (catchweed bedstraw, Galium aparine)
Summary of the method: as §1

[5] = tested on: lambsquarters (Chenopodium album)
Summary of the method: as §1

[6] = tested on: bromegrass, downy (downy bromegrass, Bromus tectorum)
Summary of the method: as §1

[7] = tested on: wheat, spring (spring wheat, Triticum aestivum)
Summary of the method: as §1

[8] = tested on: pigweed (Amaranthus retroflexus)
Summary of the method: as §1

[9] = tested on: barley, winter (winter barley, Hordeum vulgare)
Summary of the method: as §1

[10] = tested on: bluegrass (annual bluegrass, Poa annua)
Summary of the method: as §1

[11] = tested on: foxtail, green (green foxtail, Setaria viridis)
Summary of the method: as §1

[12] = tested on: buckwheat, wild (wild buckwheat, Polygonum convolvulus)
Summary of the method: as §1

[13] = tested on: ryegrass, Italian (Italian ryegrass, Lolium multiflorum)
Summary of the method: as §1

[14] = Postemergence, 31 g ai/ha, scale 0 to 100 (0 no effect, 100 complete control)
[15] = Postemergence, 125 g ai/ha, visual rating on scale 0 (no effect) to 100 (complete control), 14 to 21 d
[16] = Postemergence, 250 g ai/ha, scale 0 to 100 (0 no effect, 100 complete control)
[17] = Preemergence, 125 g ai/ha, scale 0 to 100 (0 no effect, 100 complete control)
[18] = Preemergence, 250 g ai/ha, scale 0 to 100, 0 no effect, 100 complete control
[19] = postemergence, 62 g ai/ha, scale 0 to 100, 0 no effect, 100 complete control
[20] = Preemergence, 62 g ai/ha, scale 0 to 100 (0 no effect, 100 complete control)

CC(=O)Oc1c(C)nn(C)c(=O)c1-c1c(C)sc2ccc(Cl)cc12 [Compound 108]
Canarygrass plant response rating [1, 14]: 40 | Plant response rating, Canarygrass [1, 15]: 80 | Plant response rating, Canarygrass [1, 16]: 80 | Plant response rating (scale of 0 to 100), Canarygrass ([1]; Preemergence, 31 g ai/ha): 45 | Plant response rating (scale of 0 to 100), Canarygrass ([1]; Preemergence, 62 g ai/ha): 80 | Plant response rating, Canarygrass [1, 17]: 90 | Plant response rating, Canarygrass [1, 18]: 95 | Plant response rating, Canarygrass [1, 19]: 50 | Blackgrass plant response rating [2, 14]: 20 | Plant response rating, Blackgrass [2, 15]: 65 | Plant response rating, Blackgrass [2, 16]: 75 | Plant response rating (scale of 0 to 100), Blackgrass ([2]; Preemergence, 31 g ai/ha): 15 | Plant response rating, Blackgrass [2, 20]: 35 | Plant response rating, Blackgrass [2, 17]: 50 | Plant response rating, Blackgrass [2, 18]: 80 | Plant response rating, Blackgrass [2, 19]: 45 | Windgrass plant response rating [3, 14]: 65 | Plant response rating, Windgrass [3, 15]: 75 | Plant response rating, Windgrass [3, 16]: 85 | Plant response rating (scale of 0 to 100), Windgrass ([3]; Preemergence, 31 g ai/ha): 25 | Plant response rating (scale of 0 to 100), Windgrass ([3]; Preemergence, 62 g ai/ha): 50 | Plant response rating, Windgrass [3, 17]: 75 | Plant response rating, Windgrass [3, 18]: 95 | Plant response rating, Windgrass [3, 19]: 70 | Galium plant response rating [4, 14]: 90 | Plant response rating, Galium [4, 15]: 100 | Plant response rating, Galium [4, 16]: 100 | Plant response rating (scale of 0 to 100), Galium ([4]; Preemergence, 31 g ai/ha): 60 | Plant response rating (scale of 0 to 100), Galium ([4]; Preemergence, 62 g ai/ha): 70 | Plant response rating, Galium [4, 17]: 95 | Plant response rating, Galium [4, 18]: 100 | Plant response rating, Galium [4, 19]: 95 | Lambsquarters plant response rating [5, 14]: 90 | Plant response rating, Lambsquarters [5, 15]: 100 | Plant response rating, Lambsquarters [5, 16]: 100 | Plant response rating (scale of 0 to 100), Lambsquarters ([5]; Preemergence, 31 g ai/ha): 100 | Plant response rating (scale of 0 to 100), Lambsquarters ([5]; Preemergence, 62 g ai/ha): 100 | Plant response rating, Lambsquarters [5, 17]: 100 | Plant response rating, Lambsquarters [5, 18]: 100 | Plant response rating, Lambsquarters [5, 19]: 95 | Bromegrass, Downy plant response rating [6, 14]: 25 | Plant response rating, Bromegrass, Downy [6, 15]: 40 | Plant response rating, Bromegrass, Downy [6, 16]: 65 | Plant response rating (scale of 0 to 100), Bromegrass, Downy ([6]; Preemergence, 31 g ai/ha): 25 | Plant response rating, Bromegrass, Downy [6, 20]: 25 | Plant response rating, Bromegrass, Downy [6, 17]: 70 | Plant response rating, Bromegrass, Downy [6, 18]: 75 | Plant response rating, Bromegrass, Downy [6, 19]: 30 | Wheat, Spring plant response rating [7, 14]: 15 | Plant response rating, Wheat, Spring [7, 15]: 20 | Plant response rating, Wheat, Spring [7, 16]: 30 | Plant response rating (scale of 0 to 100), Wheat, Spring ([7]; Preemergence, 31 g ai/ha): 0 | Plant response rating (scale of 0 to 100), Wheat, Spring ([7]; Preemergence, 62 g ai/ha): 20 | Plant response rating, Wheat, Spring [7, 17]: 25 | Plant response rating, Wheat, Spring [7, 18]: 40 | Plant response rating, Wheat, Spring [7, 19]: 20 | Pigweed plant response rating [8, 14]: 95 | Plant response rating, Pigweed [8, 15]: 100 | Plant response rating, Pigweed [8, 16]: 100 | Plant response rating (scale of 0 to 100), Pigweed ([8]; Preemergence, 31 g ai/ha): 100 | Plant response rating (scale of 0 to 100), Pigweed ([8]; Preemergence, 62 g ai/ha): 100 | Plant response rating, Pigweed [8, 17]: 100 | Plant response rating, Pigweed [8, 18]: 100 | Plant response rating, Pigweed [8, 19]: 100 | Barley, Winter plant response rating [9, 14]: 5 | Plant response rating, Barley, Winter [9, 15]: 10 | Plant response rating, Barley, Winter [9, 16]: 15 | Plant response rating (scale of 0 to 100), Barley, Winter ([9]; Preemergence, 31 g ai/ha): 0 | Plant response rating, Barley, Winter [9, 20]: 0 | Plant response rating, Barley, Winter [9, 17]: 10 | Plant response rating, Barley, Winter [9, 18]: 20 | Plant response rating, Barley, Winter [9, 19]: 5 | Bluegrass plant response rating [10, 14]: 5 | Plant response rating, Bluegrass [10, 15]: 25 | Plant response rating, Bluegrass [10, 16]: 35 | Plant response rating (scale of 0 to 100), Bluegrass ([10]; Preemergence, 31 g ai/ha): 10 | Plant response rating, Bluegrass [10, 20]: 15 | Plant response rating, Bluegrass [10, 17]: 35 | Plant response rating, Bluegrass [10, 18]: 75 | Plant response rating, Bluegrass [10, 19]: 10 | Foxtail, Green plant response rating [11, 14]: 65 | Plant response rating, Foxtail, Green [11, 15]: 75 | Plant response rating, Foxtail, Green [11, 16]: 95 | Plant response rating (scale of 0 to 100), Foxtail, Green ([11]; Preemergence, 31 g ai/ha): 30 | Plant response rating (scale of 0 to 100), Foxtail, Green ([11]; Preemergence, 62 g ai/ha): 90 | Plant response rating, Foxtail, Green [11, 17]: 100 | Plant response rating, Foxtail, Green [11, 18]: 100 | Plant response rating, Foxtail, Green [11, 19]: 70 | Buckwheat, Wild plant response rating [12, 14]: 90 | Plant response rating, Buckwheat, Wild [12, 15]: 100 | Plant response rating, Buckwheat, Wild [12, 16]: 100 | Plant response rating (scale of 0 to 100), Buckwheat, Wild ([12]; Preemergence, 31 g ai/ha): 0 | Plant response rating, Buckwheat, Wild [12, 20]: 0 | Plant response rating, Buckwheat, Wild [12, 17]: 20 | Plant response rating, Buckwheat, Wild [12, 18]: 35 | Plant response rating, Buckwheat, Wild [12, 19]: 100 | Ryegrass, Italian plant response rating [13, 14]: 90 | Plant response rating, Ryegrass, Italian [13, 15]: 95 | Plant response rating, Ryegrass, Italian [13, 16]: 100 | Plant response rating (scale of 0 to 100), Ryegrass, Italian ([13]; Preemergence, 31 g ai/ha): 80 | Plant response rating (scale of 0 to 100), Ryegrass, Italian ([13]; Preemergence, 62 g ai/ha): 98 | Plant response rating, Ryegrass, Italian [13, 17]: 100 | Plant response rating, Ryegrass, Italian [13, 18]: 100 | Plant response rating, Ryegrass, Italian [13, 19]: 90

Reference: US10597388B2, “Pyridazinone herbicides” (FMC CORPORATION, priority 2014, dated 2020)
